Patent publication US20250340593A1, “METHOD AND COMPOSITION FOR TREATING NEURODEGENERATIVE DISORDER” (priority 2022, published 2025)
Residues, ends and D or L forms follow the SMILES beside them.

How the values were obtained:
[1] = target: T1, Aβo-VEGF interaction (recombinant human VEGF165) (Homo sapiens, UniProt P05067); assay: Competitive ELISA of Aβo binding to immobilized VEGF; conditions: for inhibition of the binding of Aβo to VEGF: biotinylated Aβ42 oligomers 2.1 μM, peptide 10 nM to 100 μM
T1 construct: purchased Bachem
T1 sequence (P05067 672-713 limits assumed): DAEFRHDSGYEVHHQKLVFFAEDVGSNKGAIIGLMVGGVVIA
Procedure: Competitive ELISA experiments were performed to analyze the ability of the BP to impede AB42 oligomers binding to VEGF. For these assays, recombinant human VEGF165 (500 ng/ml-1) was immobilized in the 96-well microplate as the capture antigen and incubated overnight at 4° C. The following day, biotinylated AB42 oligomers were precubated at 2.1 μM for 1 h at RT with various concentrations of the CP or BP ranging from 10 nM to 100 μM. After 3 rinces with PBS 0.05% Tween 20, the mix was added in triplicate and incubated for 2 h at RT. Next, a washing step was performed followed by an incubation with the HRP-conjugated streptavidin for 20 min, additional rinces and finally the substrate solution containing TMB and H2O2. Absorbance was measured using a TECAN microplate reader.

monomeric Aβ42 = target: T2, monomeric Aβ42 (Homo sapiens, UniProt P05067); assay: Thioflavin-T assay of Aβ42 aggregation kinetics; format: biochemical; conditions: for inhibition of fibril formation (normalized ThT fluorescence): 15 μM monomeric Aβ, equimolar peptide, 24 hours; for ThT fluorescence of peptide alone: highest concentration of peptide alone, no Aβ
T2 construct: purchased Bachem; host or cells: chemical synthesis
T2 sequence (P05067 672-713 limits assumed): as above
Procedure: Thioflavin-T (ThT) assays were performed in black polystyrene 384-well plates with transparent bottom using a Tecan microplate reader with a set of excitation/emission wavelengths of 450/490 nm. Monomeric Aβ42 was prepared as described above and blocking or control peptides (BP ou CP) were used at indicted concentrations, ranging from 0.5 to 15 μM. The final concentration of ThT and monomeric AB42 was used at 15 μM in PBS buffer (pH 7.4), with a total reaction volume per well of 110 μL. The plate was sealed with a transparent plastic film and incubated at 37° C. prior to fluorescence measurement. ThT fluorescence intensity was monitored every 5 min over 24 h at 37° C. without agitation. Three replicates per condition were measured.

[2] = tested on: DIV 21 primary hippocampal neurons; assay: Aβ synaptic targeting in primary hippocampal neurons; format: cell-based, mouse; conditions: 500 nM biotinylated HMW Aβo enriched preparation aggregated 2 h with equimolar peptide; neurons treated 30 min
Procedure: Primary hippocampal neuron cultures were prepared from E17-18 C57Bl/6JRj mice. Briefly, hippocampi were removed, cut into pieces in Hank's buffered salt solution (HBSS), digested in HBSS supplemented with trypsin (0.25% v/v) and rinsed in HBSS and BSA 0.2%. Next, hippocampi were triturated in Neurobasal medium without phenol red supplemented with L-glutamine (2 mM), 2% B27, 1% penicillin-streptomycin (10000 U/mL). Hippocampal neurons were then plated onto poly-L-lysine coated coverslips (0.5 mg/ml) at a low density (15×10^3 cells/cm2) for synaptic targeting experiments. Neurons were subsequently cultured for 21 DIV in supplemented Neurobasal medium at 37° C. under 5% CO2, one-half of the media being changed once a week. […]
Treated hippocampal neuron cultures were fixed with 4% paraformaldehyde in 0.1 M phosphate buffer at RT prior to immunostaining. After a blocking step in non-permeabilizing condition (PBS, 1% BSA) surface-bound biotinylated Aβ was detected with fluorescently tagged streptavidin (Alexa Fluor 647, Invitrogen) incubated for 3 h at RT. […]
Immunostainings images were obtained using a confocal Zeiss LSM 880 AiryScan microscope equipped with two diode lasers (405, 561 nm), a laser gaz argon (488 nm) and a laser gaz He/Ne ([…]), a 63x objective and an additional zoom factor (3x). […] Biotinylated Aβ clusters were quantified in each ROI in collapsed Z-stacks.

Aβ42 oligomers (Aβo) = target: T3, Aβ42 oligomers (Aβo) (Homo sapiens, UniProt P05067); assay: Indirect ELISA, binding of coated peptide to biotinylated Aβ42 oligomers; conditions: peptide coated at 5 μM
T3 construct: purchased Bachem; host or cells: chemical synthesis
T3 sequence (P05067 672-713 limits assumed): as above
Procedure: (§1) The binding of the CP or BP to synthetic biotinylated Aβ42 oligomers (Aβo) or AB40 monomers (Aβm) was determined by indirect ELISA in which the CP or BP were used as the capture antigens and the biotin tag of the biotinylated Aβ peptides for the detection. 96-well clear polystyrene microplate (BioTechne DY990) were coated overnight at 4° C. with 5 μM of the CP or BP in PBS, pH 7.4. After immobilization, the plate was washed three times with PBS 0.05% Tween 20 and various concentrations of biotinylated Aβ peptides were added in triplicate from 0.1 μg.mL-1 to 10 μg.mL-1 (21 nM to 2.1 μM for Aβo (42), 22 nM to 2.2 μM for Aβm (40) and incubated for 2 h at RT. After additional washes with PBS 0.05% Tween 20, HRP-conjugated streptavidin (1/40) was added for 20 min at RT, followed by a washing step and an incubation in substrate solution containing 3,3′,5,5′-Tetramethylbenzidine (TMB) and H2O2. The reaction was stopped by H2SO4. Absorbance was successively measured at 450 and 540 nm with a TECAN microplate reader and optical density values at 540 nm were subtracted from the ones at 450 nm to correct for optical imperfections of the plate. Unspecific Aβ binding to the microplate was determined using non-coated wells.

AB40 monomers (Aβm) = target: T4, AB40 monomers (Aβm) (Homo sapiens, UniProt P05067); assay: Indirect ELISA, binding of coated peptide to biotinylated Aβ40 monomers
T4 construct: synthetic biotinylated Aβ42 oligomers (Aβo) or AB40 monomers (Aβm); purchased Bachem; host or cells: chemical synthesis
T4 sequence (P05067 672-711 limits assumed): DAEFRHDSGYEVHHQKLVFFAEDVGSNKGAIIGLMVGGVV
Procedure: as §1

Compound	Ki [1] [nM]	inhibition of the binding of Aβo to VEGF [1]	inhibition of fibril formation (normalized ThT fluorescence) (monomeric Aβ42)	ThT fluorescence of peptide alone (monomeric Aβ42)	steepness of the exponential phase corresponding to Aβ42 nucleation (monomeric Aβ42; peptide 0.5 to 15 μM, 15 μM Aβ42)	synapses colocalized with Aβ [2]	Kd (Aβ42 oligomers (Aβo); ELISA titration binding curves) [nM]	Kd (AB40 monomers (Aβm)) [nM]	binding to Aβo (Aβ42 oligomers (Aβo); ELISA)	binding to Aβm (AB40 monomers (Aβm); ELISA, peptide coated at 5 μM)
CC(C)[C@H](NC(=O)[C@H](Cc1ccc(O)cc1)NC(=O)[C@@H](NC(=O)[C@H](CO)NC(=O)[C@H](Cc1c[nH]c2ccccc12)NC(=O)[C@H](CO)NC(=O)[C@H](CCCCN)NC(=O)[C@H](Cc1ccc(O)cc1)NC(=O)[C@H](CCCNC(=N)N)NC(=O)[C@H](CO)NC(=O)[C@H](CCCCN)NC(=O)[C@H](CCCCN)NC(=O)[C@H](CCCNC(=N)N)NC(=O)[C@@H](N)CCCCN)C(C)C)C(=O)NCC(=O)O [BP, KRKKSRYKSWSVYVG] (H-KRKKSRYKSWSVYVG-OH; N-terminus and C-terminus assumed)	340	clear dose-dependent reduction	95%	does not induce any increase in ThT fluorescence	decreases with increasing concentrations	only a small proportion	12	19000	–	–
NDYKDDDDKGAAA [CP, reference compound]	–	did not inhibit	no significant effect	does not induce any increase in ThT fluorescence	–	~40%	–	–	fails to bind	fails to bind
